Data: PubChem BioAssay AID330 (DTP/NCI, 2004)
Several values for one entry are separate records, joined by “and”; a condition that tells them apart may be missing. Equal values may be shown once. Toxic doses and inconclusive results are not listed. The calls were made as follows: active = survival T/C of 150% or more; inactive = T/C below 125% in these data. Peptide text beside a SMILES is read from it. * marks the point of attachment. Cbz = O=C(OCc1ccccc1)*

Test system: P388 leukemia ip, CD2F1 mice, survival T/C
Assay: NCI In Vivo Anticancer Drug Screen. Data for tumor model P388 Leukemia (intraperitoneal) in CD2F1 (CDF1) mice
Conditions: endpoint: median survival time, higher = longer survival
Procedure, shortened: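 Mice carrying the transplanted tumor received test compound or vehicle. Survival was recorded in each group, and the value is the treated-group measurement divided by that of the vehicle-treated control group.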

[1] = dose: 50.0 mg/kg/injection, schedule: Q01DX005 (ip), vehicle: saline with Tween-80
[2] = dose: 100.0 mg/kg/injection, schedule: Q01DX005 (ip), vehicle: saline with Tween-80
[3] = dose: 200.0 mg/kg/injection, schedule: Q01DX005 (ip), vehicle: saline with Tween-80
[4] = dose: 25.0 mg/kg/injection, schedule: Q01DX009 (ip), vehicle: saline with Tween-80
[5] = dose: 50.0 mg/kg/injection, schedule: Q01DX009 (ip), vehicle: saline with Tween-80
[6] = dose: 100.0 mg/kg/injection, schedule: Q01DX009 (ip), vehicle: saline with Tween-80
[7] = dose: 100.0 mg/kg/injection, schedule: Q04DX003 (ip), vehicle: saline
[8] = dose: 200.0 mg/kg/injection, schedule: Q04DX003 (ip), vehicle: saline
[9] = dose: 50.0 mg/kg/injection, schedule: Q01DX009 (ip), vehicle: saline
[10] = dose: 100.0 mg/kg/injection, schedule: Q01DX009 (ip), vehicle: saline
[11] = dose: 200.0 mg/kg/injection, schedule: Q01DX009 (ip), vehicle: saline

Measured: T/C

COC1=CC2C3C(=O)NC(=O)C3C1C1CC(C#N)C21OC (stereo not given)
inactive: dose: 100.0 mg/kg/injection, schedule: Q01DX001 (ip), vehicle: saline with Tween-80 104 % of control | dose: 200.0 mg/kg/injection, schedule: Q01DX001 (ip), vehicle: saline with Tween-80 114 % of control | dose: 400.0 mg/kg/injection, schedule: Q01DX001 (ip), vehicle: saline with Tween-80 107 % of control

CC(C)Cc1c(O)c(N=Nc2ccc(C(=O)O)c(O)c2)c2ccccc2c1O
inactive: dose: 100.0 mg/kg/injection, schedule: Q04DX002 (ip), vehicle: distilled water + alcohol 99 % of control | dose: 200.0 mg/kg/injection, schedule: Q04DX002 (ip), vehicle: distilled water + alcohol 97 % of control

O=C(Nc1ccc(Sc2ccc(N=Nc3c(O)c(S(=O)(=O)O)cc4cc(S(=O)(=O)O)ccc34)cc2)cc1)c1ccc(N=Nc2ccc3c(S(=O)(=O)O)cccc3c2O)cc1
inactive: [1] 101 % of control | [2] 102 % of control | [3] 95 % of control

C/C(=N\N=C(/[Se])N1CCCCC1C)c1ccccn1 (stereo not given)
inactive: dose: 12.5 mg/kg/injection, schedule: Q04DX003 (ip), vehicle: Klucel (hydroxypropylcellulose) (HPC) 101 % of control | dose: 25.0 mg/kg/injection, schedule: Q04DX003 (ip), vehicle: Klucel (hydroxypropylcellulose) (HPC) 114 % of control

O=NN(CCCl)C(=O)Oc1ccc(F)cc1
inactive: dose: 3.12 mg/kg/injection, schedule: Q01DX001 (ip), vehicle: saline with Tween-80 118 % of control | dose: 6.25 mg/kg/injection, schedule: Q01DX001 (ip), vehicle: saline with Tween-80 116 % of control | dose: 50.0 mg/kg/injection, schedule: Q01DX001 (ip), vehicle: saline with Tween-80 106 % of control

O=c1c2cnc(-c3ccccc3)nc2oc2ccc3ccccc3c12
inactive: dose: 12.5 mg/kg/injection, schedule: Q01DX009 (ip), vehicle: saline with Tween-80 97 % of control | [4] 96 % of control | [5] 87 % of control and 92 % of control | [6] 90 % of control

O=C(NC(C(=O)O)C1CC(Cl)=NO1)OCc1ccc([N+](=O)[O-])cc1 (stereo not given)
inactive: dose: 6.2 mg/kg/injection, schedule: Q04DX003 (ip), vehicle: other 108 % of control | dose: 12.5 mg/kg/injection, schedule: Q04DX003 (ip), vehicle: other 117 % of control

O=C(CCS(=O)(=O)CCC(=O)c1ccccc1)c1ccccc1
inactive: [7] 90 % of control | [8] 89 % of control | dose: 400.0 mg/kg/injection, schedule: Q04DX003 (ip), vehicle: saline 88 % of control

Cc1ccc(C(C)C)c(OCCN)c1
inactive: dose: 6.25 mg/kg/injection, schedule: Q01DX009 (ip), vehicle: saline 112 % of control | dose: 12.5 mg/kg/injection, schedule: Q01DX009 (ip), vehicle: saline 110 % of control | dose: 25.0 mg/kg/injection, schedule: Q01DX009 (ip), vehicle: saline 107 % of control | [9] 94 % of control

COc1nc(Nc2ccccc2SC)nc(OC)n1
inactive: [1] 104 % of control | [2] 106 % of control | [3] 107 % of control

CCOC(=O)c1ccc[nH]1
inactive: [4] 104 % of control | [5] 108 % of control | [6] 112 % of control | dose: 200.0 mg/kg/injection, schedule: Q01DX009 (ip), vehicle: saline with Tween-80 103 % of control

COc1cc2c(c3oc4c(O)cccc4c(=O)c13)CC(C(C)(O)CCl)O2 (stereo not given)
inactive: dose: 2.0 mg/kg/injection, schedule: Q01DX009 (ip), vehicle: saline + alcohol 113 % of control | dose: 4.0 mg/kg/injection, schedule: Q01DX009 (ip), vehicle: saline + alcohol 112 % of control

CCC(C)n1c(=O)cc(C)[nH]c1=O (stereo not given)
inactive: [9] 101 % of control | [10] 98 % of control | [11] 104 % of control

CCC[CH2][Sn]([CH2]CCC)([CH2]CCC)[CH2]CC[N+](C)(C)C
inactive: dose: 0.78 mg/kg/injection, schedule: Q01DX009 (ip), vehicle: saline 105 % of control | dose: 1.56 mg/kg/injection, schedule: Q01DX009 (ip), vehicle: saline 105 % of control | dose: 3.12 mg/kg/injection, schedule: Q01DX009 (ip), vehicle: saline 101 % of control

COC(=O)[C@@]12OC[C@]34C([C@@H](O)C1O)[C@@]1(C)CC(=O)C(O)=C(C)C1C[C@H]3OC(=O)[C@H](OC(=O)c1ccc(Cl)cc1)[C@H]42 (stereo not given in full)
inactive: dose: 0.25 mg/kg/injection, schedule: Q01DX005 (ip), vehicle: DMSO 112 % of control | dose: 0.5 mg/kg/injection, schedule: Q01DX005 (ip), vehicle: DMSO 116 % of control | dose: 1.0 mg/kg/injection, schedule: Q01DX005 (ip), vehicle: DMSO 113 % of control and 115 % of control | dose: 2.0 mg/kg/injection, schedule: Q01DX005 (ip), vehicle: DMSO 109 % of control and 118 % of control | dose: 4.0 mg/kg/injection, schedule: Q01DX005 (ip), vehicle: DMSO 109 % of control | dose: 8.0 mg/kg/injection, schedule: Q01DX005 (ip), vehicle: DMSO 110 % of control and 115 % of control | dose: 16.0 mg/kg/injection, schedule: Q01DX005 (ip), vehicle: DMSO 112 % of control

O=C(NC(Cc1ccccc1)C(=O)NC(CO)C(=O)O)OCc1ccccc1 (stereo not drawn) (Cbz-Phe-Ser-OH; configuration not given here)
inactive: [1] 100 % of control | [2] 100 % of control | [3] 98 % of control

N=C(N)c1ccc(OCCCCOc2ccc(N)cc2Cl)cc1
inactive: dose: 30.0 mg/kg/injection, schedule: Q01DX005 (ip), vehicle: saline with Tween-80 102 % of control | dose: 60.0 mg/kg/injection, schedule: Q01DX005 (ip), vehicle: saline with Tween-80 106 % of control and 97 % of control | dose: 120.0 mg/kg/injection, schedule: Q01DX005 (ip), vehicle: saline with Tween-80 105 % of control

CCOC(=O)CCc1ccc2c(c1)OCO2
inactive: [10] 100 % of control | dose: 100.0 mg/kg/injection, schedule: Q04DX003 (ip), vehicle: saline with Tween-80 91 % of control | [11] 104 % of control | dose: 200.0 mg/kg/injection, schedule: Q04DX003 (ip), vehicle: saline with Tween-80 100 % of control | dose: 400.0 mg/kg/injection, schedule: Q01DX009 (ip), vehicle: saline 113 % of control | dose: 400.0 mg/kg/injection, schedule: Q04DX003 (ip), vehicle: saline with Tween-80 91 % of control

CC(=O)Nn1nnc2ccccc2c1=O
inactive: [1] 97 % of control | [2] 110 % of control | [3] 110 % of control

COC(=O)C1(OC(C)=O)C(=O)NC2=C1C(=O)c1ccccc1C2=O (stereo not given)
inactive: dose: 12.5 mg/kg/injection, schedule: Q01DX005 (ip), vehicle: saline with Tween-80 102 % of control | dose: 25.0 mg/kg/injection, schedule: Q01DX005 (ip), vehicle: saline with Tween-80 104 % of control | [1] 110 % of control and 113 % of control

Cc1cc(C)c(SSc2nnnn2C)c(C)c1
inactive: dose: 50.0 mg/kg/injection, schedule: Q01DX009 (ip), vehicle: Klucel (hydroxypropylcellulose) (HPC) 100 % of control | dose: 100.0 mg/kg/injection, schedule: Q01DX009 (ip), vehicle: Klucel (hydroxypropylcellulose) (HPC) 90 % of control

Cc1ccc(S(=O)(=O)C(c2ccccc2)C(Br)C(=O)c2ccccc2)cc1 (stereo not given)
inactive: [7] 87 % of control | [8] 88 % of control
